Test results from a compilation of properties of binary mixtures (doi:10.1039/c7qm00510e).

Test: xn = mol fraction of the nth substance listed
Details: 101 kPa

CCCCCCCCCCOS(=O)(=O)[O-].CC[n+]1ccn(C)c1 + O
electrical conductivity [S/m]
Details | 303.15 K | 313.15 K | 323.15 K | 333.15 K | 343.15 K | 353.15 K | 363.15 K | 372.95 K
x1 = 0.075 | 2.53 | 3.16 | 3.83 | 4.55 | 5.29 | 6.06 | – | –
x1 = 0.317 | – | – | – | – | 1.34 | 1.63 | 1.96 | 2.23
